The values below come from ChEMBL document CHEMBL4673310, “Discovery of benzhydrol-oxaborole derivatives as Streptococcus pneumoniae leucyl-tRNA synthetase inhibitors” (Bioorg Med Chem, 2021).

A short description of test [1]: Inhibition of Streptococcus pneumoniae LeuRS using [3H]Leucine as substrate preincubated for 20 mins.
Another test concerns Streptococcus pneumoniae. The test is described as follows: Antibacterial activity against Streptococcus pneumoniae assessed as suppression of visible growth incubated for 24 hrs by CLSI-based broth microdilution method. It is filed as functional.

≈ marks a conversion by molar mass, not a printed value. Calls of active or inactive are those of the source. The rule behind the calls is not given here.

Turning to `OB1OCc2ccc(C(O)c3ccc(SCC4CCCCC4)cc3)cc21` (centres undefined), the concentration for half-maximal inhibition (IC50) in test [1] amounted to 8.76 µM.
Regarding `OB1OCc2ccc(C(O)c3ccc(SC(F)(F)F)cc3)cc21` (centres undefined), the IC50 in test [1] stood at 25.7 µM.
`COc1cccc(C(O)c2ccc3c(c2)B(O)OC3)c1` (centres undefined) displayed an IC50 in test [1] of 50.8 µM.
Consider `C[Si](C)(C)CSc1ccc(C(O)c2ccc3c(c2)B(O)OC3)cc1` (centres undefined), for which inhibition in test [1] was half-maximal at 13.3 µM (IC50).
For `CC1(C)S[C@@H]2[C@H](NC(=O)[C@H](N)c3ccccc3)C(=O)N2[C@H]1C(=O)O` [AMPICILLIN], in the test with Streptococcus pneumoniae, the MIC turned out to be 0.125 µg/mL (≈ 0.358 µM).
On to `OB1OCc2ccc(C(O)c3ccc(F)cc3)cc21` (centres undefined), for which, in the test on Streptococcus pneumoniae, the MIC result is “inactive”. Also, the midpoint of inhibition in test [1], the IC50, lay at 4.86 µM.
`CCOC(=O)CC(=O)CSc1ccc(C(O)c2ccc3c(c2)B(O)OC3)cc1` (centres undefined) displayed an IC50 in test [1] of 7.63 µM.
Same read-out and setting: in the case of `COC(=O)c1ccc(CSc2ccc(C(O)c3ccc4c(c3)B(O)OC4)cc2)cc1` (centres undefined) it was 22.7 µM; in that of `COC(=O)c1ccc(C(O)c2ccc3c(c2)B(O)OC3)cc1` (centres undefined), 18.5 µM.
With `OB1OCc2ccc(C(O)c3ccc(-c4ccccc4)cc3)cc21` (centres undefined), the MIC with Streptococcus pneumoniae came out at 4 µg/mL (≈ 12.7 µM). Moreover, the half-inhibitory concentration (IC50) in test [1] amounted to 5.48 µM.
`OB1OCc2ccc(C(O)c3cccc(Cl)c3)cc21` (centres undefined): the IC50 in test [1] came out at 23.7 µM.
In test [1], `CS(=O)(=O)c1ccc(C(O)c2ccc3c(c2)B(O)OC3)cc1` (centres undefined) had an IC50 of 32.5 µM.
Same read-out and setting: in the case of `CSc1ccccc1C(O)c1ccc2c(c1)B(O)OC2` (centres undefined) it was 57.1 µM.
As for `COCCSc1ccc(C(O)c2ccc3c(c2)B(O)OC3)cc1` (centres undefined), the IC50 in test [1] worked out at 5.76 µM.
On the same count and under the same terms, with `OB1OCc2ccc(C(O)c3ccc(N4CCOCC4)cc3)cc21` (centres undefined) the figure was 10.3 µM; with `C[S+]([O-])c1ccc(C(O)c2ccc3c(c2)B(O)OC3)cc1` (centres undefined), more than 100 µM.
As to `OB1OCc2ccc(C(O)c3ccc(S)cc3)cc21` (centres undefined), the MIC in the test on Streptococcus pneumoniae worked out at 8 µg/mL (≈ 29.4 µM). Half-maximal inhibition in test [1] (IC50) was put at 0.368 µM.
As to `Nc1ccc(CSc2ccc(C(O)c3ccc4c(c3)B(O)OC4)cc2)cc1` (centres undefined), 11.7 µM corresponded to half-maximal inhibition in test [1] (IC50).
Take `OB1OCc2ccc(C(O)c3ccc(SCC(F)(F)F)cc3)cc21` (centres undefined): the IC50 in test [1] was 3.63 µM.
With `CC(=O)COc1ccc(C(O)c2ccc3c(c2)B(O)OC3)cc1` (centres undefined), the IC50 in test [1] is 7 µM.
On the same count and under the same terms, in the case of `O=[N+]([O-])c1ccc(CSc2ccc(C(O)c3ccc4c(c3)B(O)OC4)cc2)cc1` (centres undefined) it was 7.16 µM.
On to `OB1OCc2ccc(C(O)c3ccccc3)cc21` (centres undefined), for which, in the test on Streptococcus pneumoniae, the MIC was 10 µg/mL (≈ 41.7 µM). In test [1], this molecule returned an IC50 of 2.13 µM.
In turn, `COc1ccc(C(O)c2ccc3c(c2)B(O)OC3)cc1` (centres undefined) gave an IC50 in test [1] of 23.2 µM.
`CC(=O)c1ccc(C(O)c2ccc3c(c2)B(O)OC3)cc1` (centres undefined) came in with an IC50 in test [1] of 11 µM.
In test [1], `OB1OCc2ccc(C(O)c3ccc(SCc4ccncc4)cc3)cc21` (centres undefined) returned an IC50 of 7.17 µM.
With `NC(=O)CSc1ccc(C(O)c2ccc3c(c2)B(O)OC3)cc1` (centres undefined), in test [1], the IC50 amounted to 10.2 µM.
In the case of `O=Cc1ccc(C(O)c2ccc3c(c2)B(O)OC3)cc1` (centres undefined), the IC50 in test [1] was determined as 12.8 µM.
For `COc1ccc(C(O)c2ccc3c(c2)B(O)OC3)cc1OC` (centres undefined), the IC50 in test [1] stood at 67.8 µM.
As to `N#CCSc1ccc(C(O)c2ccc3c(c2)B(O)OC3)cc1` (centres undefined), the MIC in the test on Streptococcus pneumoniae amounted to 8 µg/mL (≈ 25.7 µM). Also, half-maximal inhibition in test [1] (IC50) required 3.89 µM.
On the same counts, the results for `CSc1ccc(C(O)c2ccc3c(c2)B(O)OC3)cc1` (centres undefined) are 32 µg/mL (≈ 112 µM) and 3.95 µM.
For `N#Cc1ccc(C(O)c2ccc3c(c2)B(O)OC3)cc1` (centres undefined), in test [1], the midpoint of inhibition, the IC50, lay at 8.14 µM.
As for `OB1OCc2ccc(C(O)c3ccc(C(F)(F)F)cc3)cc21` (centres undefined), in the test on Streptococcus pneumoniae, the MIC amounted to 32 µg/mL (≈ 104 µM). For the same molecule, the IC50 in test [1] stood at 5.75 µM.
In the case of `C#CCSc1ccc(C(O)c2ccc3c(c2)B(O)OC3)cc1` (centres undefined), in the test on Streptococcus pneumoniae, the MIC is 16 µg/mL (≈ 51.6 µM). In test [1], this molecule registered an IC50 of 3.77 µM.
In the case of `CC(C)(C)OC(=O)NCCSc1ccc(C(O)c2ccc3c(c2)B(O)OC3)cc1` (centres undefined), 70.2 µM corresponded to half-maximal inhibition in test [1] (IC50).
Same read-out and setting: in the case of `O=C(O)CSc1ccc(C(O)c2ccc3c(c2)B(O)OC3)cc1` (centres undefined) it was 2.15 µM.
As for `C=Cc1ccc(C(O)c2ccc3c(c2)B(O)OC3)cc1` (centres undefined), in the test with Streptococcus pneumoniae, the MIC stood at 8 µg/mL (≈ 30.1 µM). In test [1], this molecule returned a concentration for half-maximal inhibition (IC50) of 4.63 µM.
As for `CC(=O)CSc1ccc(C(O)c2ccc3c(c2)B(O)OC3)cc1` (centres undefined), the MIC in the test on Streptococcus pneumoniae was determined as 6 µg/mL (≈ 18.3 µM). This molecule also yielded an IC50 in test [1] of 0.95 µM.
On to `OB1OCc2ccc(C(O)c3cccc(F)c3)cc21` (centres undefined), for which half-maximal inhibition in test [1] (IC50) required 56.1 µM.
For the molecule `COc1cc(C(O)c2ccc3c(c2)B(O)OC3)cc(OC)c1OC` (centres undefined), in test [1], the IC50 was more than 640 µM.
The molecule `O=Cc1cc(C(O)c2ccc3c(c2)B(O)OC3)ccc1F` (centres undefined) gave an IC50 in test [1] of 66.8 µM.
In test [1], `OB1OCc2ccc(C(O)c3ccc(Cl)cc3)cc21` (centres undefined) returned an IC50 of 7.44 µM.
In test [1], `C=CCSc1ccc(C(O)c2ccc3c(c2)B(O)OC3)cc1` (centres undefined) showed a concentration for half-maximal inhibition (IC50) of 8.27 µM.
In test [1], `OB1OCc2ccc(C(O)c3ccc(SCc4ccccc4)cc3)cc21` (centres undefined) displayed an IC50 of 27.5 µM.
In the case of `CSc1cccc(C(O)c2ccc3c(c2)B(O)OC3)c1` (centres undefined), in test [1], it took 23.9 µM to reach half-maximal inhibition (IC50).

By IC50 is commonly meant the concentration needed to halve the response being measured. Low readings indicate greater potency, high ones weaker potency. By MIC is commonly meant the lowest concentration found to suppress growth.
